Data: patent publication US20230081390A1, “INHIBITORS OF RAF KINASES” (Kinnate Biopharma Inc., priority 2019, published 2023)
pIC50: −log10 of the molar value.

biological target: human RAF1 (Homo sapiens, UniProt P04049); assay: Protein kinase assay (33P-ATP filter binding), human RAF1, 10-dose IC50; assay type: biochemical; conditions: MEK1 (K97R) substrate 3 micromolar, ATP 10 micromolar, read-out: RAF-1 IC50
Procedure: In brief, for each reaction, kinase and substrate were mixed in a buffer containing 20 mM HEPES (pH 7.5), 10 mM MgCl2, 1 mM EGTA, 0.02% Brij35, 0.02 mg/mL BSA, 0.1 mM Na3VO4, 2 mM DTT, and […]. All compounds were solubilized in DMSO. Compounds were then added to each reaction mixture via acoustic dispense using an ECHO 550 nanoliter dispenser. For human RAF1 testing, human MEK1 (K97R) was used as a substrate at a concentration of 3 micromolar, with a final ATP concentration of 10 micromolar. […] Reactions were carried out at room temperature for 2 hr and spotted onto P81 ion exchange cellulose chromatography paper (Reaction Biology). […] The percent remaining kinase activity relative to a vehicle-containing (DMSO) kinase reaction was calculated for each kinase/inhibitor pair. IC50 values were calculated using Prism 5 (GraphPad).

human RAF1, sequence (P04049 whole entry): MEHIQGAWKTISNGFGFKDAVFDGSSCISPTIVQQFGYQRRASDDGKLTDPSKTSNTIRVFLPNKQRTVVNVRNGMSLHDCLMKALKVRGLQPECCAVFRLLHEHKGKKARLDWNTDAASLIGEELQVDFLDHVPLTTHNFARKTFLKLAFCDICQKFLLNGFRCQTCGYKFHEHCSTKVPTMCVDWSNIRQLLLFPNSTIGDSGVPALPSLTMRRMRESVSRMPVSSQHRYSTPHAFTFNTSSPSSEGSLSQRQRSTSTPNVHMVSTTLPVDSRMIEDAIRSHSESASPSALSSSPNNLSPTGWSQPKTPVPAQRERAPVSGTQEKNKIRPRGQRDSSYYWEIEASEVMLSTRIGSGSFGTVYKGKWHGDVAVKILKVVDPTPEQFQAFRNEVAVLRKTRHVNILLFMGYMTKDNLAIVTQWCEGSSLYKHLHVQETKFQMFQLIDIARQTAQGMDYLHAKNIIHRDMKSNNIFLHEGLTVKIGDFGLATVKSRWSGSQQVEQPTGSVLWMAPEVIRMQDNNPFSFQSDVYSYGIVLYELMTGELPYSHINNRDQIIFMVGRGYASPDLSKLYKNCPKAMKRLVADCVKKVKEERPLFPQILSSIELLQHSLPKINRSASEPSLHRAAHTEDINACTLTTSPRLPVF

Row | Structure (SMILES) | pIC50
1 | Cc1cc(F)c(NC(=O)N2C[C@H](CF)[C@@H](C(F)(F)F)C2)cc1-c1cc(OCCO)nc(N2CCOCC2)c1 (relative stereo) [Example 39, (trans)-N-[2-fluoro-5-[2-(2-hydroxyethoxy)-6-(morpholin-4-yl)pyridin-4-yl]-4-methylphenyl]-3-(fluoromethyl)-4-(trifluoromethyl) pyrrolidine-1-carboxamide] | > 8.00
2 | Cc1ccc(NC(=O)N2CC[C@@H](C(F)(F)F)C2)cc1-c1cnc(OCCO)c(N2CCOCC2)c1 (single isomer, unassigned) [Example 14] | > 8.00
3 | Cc1ccc(NC(=O)N2CC[C@H](C(F)(F)F)C2)cc1-c1cnc(OCCO)c(N2CCOCC2)c1 (single isomer, unassigned) [Example 15] | > 8.00
4 | Cc1ncc(NC(=O)N2CC[C@@H](C(F)(F)F)C2)cc1-c1cnc(OCCO)c(N2CCOCC2)c1 (single isomer, unassigned) [Example 16] | > 8.00
5 | Cc1ncc(NC(=O)N2CC[C@H](C(F)(F)F)C2)cc1-c1cnc(OCCO)c(N2CCOCC2)c1 (single isomer, unassigned) [Example 17] | > 8.00
6 | Cc1cc(F)c(NC(=O)N2CC[C@@H](C(F)(F)F)C2)cc1-c1cc(OCCO)nc(N2CCOC[C@H]2C)c1 (single isomer, unassigned) [Example 29] | > 8.00
7 | Cc1cc(F)c(NC(=O)N2CC[C@H](C(F)(F)F)C2)cc1-c1cc(OCCO)nc(N2CCOC[C@H]2C)c1 (single isomer, unassigned) [Example 30] | > 8.00
8 | Cc1cc(F)c(NC(=O)N2CC[C@@H](C(F)(F)F)C2)cc1-c1cnc(OC2CCOCC2)c(N2CCOCC2)c1 (single isomer, unassigned) [Example 31] | > 8.00
9 | Cc1cc(F)c(NC(=O)N2CC[C@H](C(F)(F)F)C2)cc1-c1cnc(OC2CCOCC2)c(N2CCOCC2)c1 (single isomer, unassigned) [Example 32] | > 8.00
10 | Cc1cc(F)c(NC(=O)N2CC[C@H](C(C)(F)F)C2)cc1-c1cc(OCCO)nc(N2CCOCC2)c1 (single isomer, unassigned) [Example 33] | > 8.00
11 | Cc1cc(F)c(NC(=O)N2CC[C@@H](C(C)(F)F)C2)cc1-c1cc(OCCO)nc(N2CCOCC2)c1 (single isomer, unassigned) [Example 34] | > 8.00
12 | Cc1cc(F)c(NC(=O)N2CC[C@H](C3CC3)C2)cc1-c1cc(OCCO)nc(N2CCOCC2)c1 (single isomer, unassigned) [Example 47] | > 8.00
13 | Cc1cc(F)c(NC(=O)N2CC[C@@H](C3CC3)C2)cc1-c1cc(OCCO)nc(N2CCOCC2)c1 (single isomer, unassigned) [Example 48] | > 8.00
14 | Cc1cc(F)c(NC(=O)N2C[C@@H]3C[C@]3(C(F)(F)F)C2)cc1-c1cc(OCCO)nc(N2CCOCC2)c1 (single isomer, unassigned) [Example 50] | > 8.00
15 | Cc1cc(F)c(NC(=O)N2C[C@H]3C[C@@]3(C(F)(F)F)C2)cc1-c1cc(OCCO)nc(N2CCOCC2)c1 (single isomer, unassigned) [Example 51] | > 8.00
16 | Cc1cc(F)c(NC(=O)N2CC(C)C(C(F)(F)F)C2)cc1-c1cc(OCCO)nc(N2CCOCC2)c1 (single isomer, unassigned) [Example 52, N-[2-fluoro-5-[2-(2-hydroxyethoxy)-6-(morpholin-4-yl)pyridin-4-yl]-4-methylphenyl]-3-methyl-4-(trifluoromethyl)pyrrolidine-1-carboxamide] | > 8.00
17 | Cc1cc(F)c(NC(=O)N2CC(C)C(C(F)(F)F)C2)cc1-c1cc(OCCO)nc(N2CCOCC2)c1 (single isomer, unassigned) [Example 53, N-[2-fluoro-5-[2-(2-hydroxyethoxy)-6-(morpholin-4-yl)pyridin-4-yl]-4-methylphenyl]-3-methyl-4-(trifluoromethyl)pyrrolidine-1-carboxamide] | > 8.00
18 | Cc1cc(F)c(NC(=O)N2CCO[C@@H](C(C)(F)F)C2)cc1-c1cc(OCCO)nc(N2CCOCC2)c1 (single isomer, unassigned) [Example 58] | > 8.00
19 | Cc1cc(F)c(NC(=O)N2CCO[C@@H](C(C)(F)F)C2)cc1-c1cc(OCCO)nc(N2CCOCC2)c1 (single isomer, unassigned) [Example 59] | > 8.00
20 | Cc1cc(F)c(NC(=O)N2C[C@H](C(F)(F)F)C[C@@H]2C)cc1-c1cc(OCCO)nc(N2CCOCC2)c1 (single isomer, unassigned) [Example 60, (cis)-N-[2-fluoro-5-[2-(2-hydroxyethoxy)-6-(morpholin-4-yl)pyridin-4-yl]-4-methylphenyl]-2-methyl-4-(trifluoromethyl)pyrrolidine-1-carboxamide] | > 8.00
21 | Cc1cc(F)c(NC(=O)N2C[C@H](C(F)(F)F)C[C@@H]2C)cc1-c1cc(OCCO)nc(N2CCOCC2)c1 (single isomer, unassigned) [Example 61, (cis)-N-[2-fluoro-5-[2-(2-hydroxyethoxy)-6-(morpholin-4-yl)pyridin-4-yl]-4-methylphenyl]-2-methyl-4-(trifluoromethyl)pyrrolidine-1-carboxamide] | > 8.00
22 | Cc1cc(F)c(NC(=O)N2CC[C@]3(C2)CC3(F)F)cc1-c1cc(OCCO)nc(N2CCOCC2)c1 (single isomer, unassigned) [Example 62] | > 8.00
23 | Cc1cc(F)c(NC(=O)N2CC[C@@]3(C2)CC3(F)F)cc1-c1cc(OCCO)nc(N2CCOCC2)c1 (single isomer, unassigned) [Example 63] | > 8.00
24 | Cc1cc(F)c(NC(=O)N2CCC(C(F)(F)F)C2C)cc1-c1cc(OCCO)nc(N2CCOCC2)c1 (single isomer, unassigned) [Example 64, N-[2-fluoro-5-[2-(2-hydroxyethoxy)-6-(morpholin-4-yl)pyridin-4-yl]-4-methylphenyl]-2-methyl-3-(trifluoromethyl)pyrrolidine-1-carboxamide] | 6.00 to 7.00
25 | Cc1cc(F)c(NC(=O)N2CCC(C(F)(F)F)C2C)cc1-c1cc(OCCO)nc(N2CCOCC2)c1 (single isomer, unassigned) [Example 65, N-[2-fluoro-5-[2-(2-hydroxyethoxy)-6-(morpholin-4-yl)pyridin-4-yl]-4-methylphenyl]-2-methyl-3-(trifluoromethyl)pyrrolidine-1-carboxamide] | 7.00 to 8.00
26 | Cc1cc(F)c(NC(=O)N2CCC(C(F)(F)F)C2C)cc1-c1cc(OCCO)nc(N2CCOCC2)c1 (single isomer, unassigned) [Example 66, N-[2-fluoro-5-[2-(2-hydroxyethoxy)-6-(morpholin-4-yl)pyridin-4-yl]-4-methylphenyl]-2-methyl-3-(trifluoromethyl)pyrrolidine-1-carboxamide] | > 8.00
27 | Cc1cc(F)c(NC(=O)N2CCC(C(F)(F)F)C2C)cc1-c1cc(OCCO)nc(N2CCOCC2)c1 (single isomer, unassigned) [Example 67, N-[2-fluoro-5-[2-(2-hydroxyethoxy)-6-(morpholin-4-yl)pyridin-4-yl]-4-methylphenyl]-2-methyl-3-(trifluoromethyl)pyrrolidine-1-carboxamide] | > 8.00
28 | Cc1cc(F)c(NC(=O)N2CCC3C2C3C(F)(F)F)cc1-c1cc(OCCO)nc(N2CCOCC2)c1 (single isomer, unassigned) [Example 68, N-[2-fluoro-5-[2-(2-hydroxyethoxy)-6-(morpholin-4-yl)pyridin-4-yl]-4-methylphenyl]-6-(trifluoromethyl)-2-azabicyclo[3.1.0]hexane-2-carboxamide] | > 8.00
